According to the NIST ThermoML archive (doi:10.1021/je060271a):
Several values for one entry are separate records, joined by “and”; a condition that tells them apart may be missing. Equal entries are not always repeated.

Conditions: 343.16 K, Liquid, Vibrating tube method

CCCCCC(=O)OCC(COC(=O)CCCCC)(COC(=O)CCCCC)COC(=O)CCCCC [pentaerythritol tetrahexanoate]
Conditions | mass density
251.1 kPa | 957.3 kg/m3 and 957.2 kg/m3
254 kPa | 957.3 kg/m3 and 957.1 kg/m3
254.2 kPa | 957.2 kg/m3
254.4 kPa | 957.3 kg/m3
254.5 kPa | 957.3 kg/m3
255.8 kPa | 957.3 kg/m3
255.9 kPa | 957.3 kg/m3
256.3 kPa | 957.3 kg/m3
258.5 kPa | 957.2 kg/m3
258.7 kPa | 957.2 kg/m3
258.9 kPa | 957.3 kg/m3
259.1 kPa | 957.2 kg/m3
260.1 kPa | 957.2 kg/m3 and 957.3 kg/m3
263.7 kPa | 957.2 kg/m3
264.3 kPa | 957.3 kg/m3
264.6 kPa | 957.3 kg/m3
264.8 kPa | 957.2 kg/m3
265 kPa | 957.2 kg/m3
265.1 kPa | 957.3 kg/m3
265.5 kPa | 957.2 kg/m3
265.7 kPa | 957.3 kg/m3
266 kPa | 957.2 kg/m3
266.2 kPa | 957.3 kg/m3 and 957.2 kg/m3
266.5 kPa | 957.3 kg/m3
266.7 kPa | 957.3 kg/m3
267 kPa | 957.3 kg/m3
267.2 kPa | 957.4 kg/m3
267.6 kPa | 957.2 kg/m3
267.7 kPa | 957.3 kg/m3 and 957.4 kg/m3
268.3 kPa | 957.4 kg/m3
268.4 kPa | 957.2 kg/m3 and 957.3 kg/m3
268.6 kPa | 957.3 kg/m3
269.1 kPa | 957.2 kg/m3 and 957.3 kg/m3
269.5 kPa | 957.3 kg/m3
269.8 kPa | 957.2 kg/m3
270.2 kPa | 957.3 kg/m3
270.3 kPa | 957.3 kg/m3
270.5 kPa | 957.3 kg/m3
271.4 kPa | 957.4 kg/m3
271.6 kPa | 957.2 kg/m3 and 957.3 kg/m3
271.7 kPa | 957.4 kg/m3
272.1 kPa | 957.2 kg/m3 and 957.3 kg/m3
272.3 kPa | 957.3 kg/m3
272.6 kPa | 957.3 kg/m3
273 kPa | 957.3 kg/m3
273.3 kPa | 957.3 kg/m3
274.7 kPa | 957.1 kg/m3
274.9 kPa | 957.4 kg/m3
275 kPa | 957.2 kg/m3
276.9 kPa | 957.4 kg/m3
279.9 kPa | 957.2 kg/m3
280.2 kPa | 957.4 kg/m3
280.4 kPa | 957.3 kg/m3 and 957.4 kg/m3
280.6 kPa | 957.3 kg/m3
280.9 kPa | 957.2 kg/m3 and 957.3 kg/m3
281.3 kPa | 957.3 kg/m3
281.5 kPa | 957.3 kg/m3
281.8 kPa | 957.2 kg/m3 and 957.4 kg/m3
282.3 kPa | 957.4 kg/m3
282.7 kPa | 957.4 kg/m3
282.9 kPa | 957.3 kg/m3
283 kPa | 957.3 kg/m3
283.4 kPa | 957.3 kg/m3
283.9 kPa | 957.2 kg/m3
284.2 kPa | 957.3 kg/m3
284.4 kPa | 957.3 kg/m3
284.7 kPa | 957.3 kg/m3
284.8 kPa | 957.3 kg/m3
285.4 kPa | 957.3 kg/m3
290.3 kPa | 957.4 kg/m3
290.5 kPa | 957.3 kg/m3 and 957.4 kg/m3
290.7 kPa | 957.4 kg/m3
293.8 kPa | 957.1 kg/m3
294 kPa | 957.4 kg/m3
294.3 kPa | 957.2 kg/m3
294.7 kPa | 957.2 kg/m3
294.8 kPa | 957.2 kg/m3
295.2 kPa | 957.2 kg/m3
295.5 kPa | 957.3 kg/m3
295.9 kPa | 957.3 kg/m3
296.4 kPa | 957.2 kg/m3
299.9 kPa | 957.4 kg/m3 and 957.3 kg/m3
300 kPa | 957.4 kg/m3
300.2 kPa | 957.4 kg/m3
300.6 kPa | 957.2 kg/m3
300.7 kPa | 957.3 kg/m3
300.9 kPa | 957.2 kg/m3
301.1 kPa | 957.2 kg/m3
301.3 kPa | 957.3 kg/m3
301.6 kPa | 957.4 kg/m3 and 957.3 kg/m3
302.1 kPa | 957.3 kg/m3 and 957.4 kg/m3
302.5 kPa | 957.2 kg/m3
302.7 kPa | 957.3 kg/m3
303 kPa | 957.3 kg/m3
303.2 kPa | 957.2 kg/m3
304.2 kPa | 957.3 kg/m3
304.6 kPa | 957.2 kg/m3
304.7 kPa | 957.4 kg/m3
305.1 kPa | 957.2 kg/m3
305.4 kPa | 957.4 kg/m3
307.2 kPa | 957.3 kg/m3
310.1 kPa | 957.3 kg/m3
310.3 kPa | 957.4 kg/m3
310.5 kPa | 957.3 kg/m3
310.6 kPa | 957.4 kg/m3
312.2 kPa | 957.3 kg/m3
312.6 kPa | 957.2 kg/m3
313.1 kPa | 957.4 kg/m3
313.6 kPa | 957.4 kg/m3
313.9 kPa | 957.4 kg/m3
314.3 kPa | 957.4 kg/m3
314.5 kPa | 957.4 kg/m3
314.6 kPa | 957.2 kg/m3
314.8 kPa | 957.4 kg/m3
315.3 kPa | 957.3 kg/m3
315.5 kPa | 957.4 kg/m3
317.1 kPa | 957.4 kg/m3
317.4 kPa | 957.3 kg/m3
318.1 kPa | 957.3 kg/m3
321.6 kPa | 957.4 kg/m3
322.1 kPa | 957.4 kg/m3
325.6 kPa | 957.3 kg/m3
328.2 kPa | 957.3 kg/m3
328.7 kPa | 957.4 kg/m3
328.9 kPa | 957.3 kg/m3
329.2 kPa | 957.4 kg/m3
329.6 kPa | 957.3 kg/m3
329.9 kPa | 957.2 kg/m3
330.1 kPa | 957.4 kg/m3
330.6 kPa | 957.3 kg/m3
330.8 kPa | 957.3 kg/m3
331.3 kPa | 957.4 kg/m3
331.5 kPa | 957.4 kg/m3 and 957.3 kg/m3
332 kPa | 957.3 kg/m3
332.4 kPa | 957.3 kg/m3
332.5 kPa | 957.3 kg/m3
332.9 kPa | 957.3 kg/m3
337.1 kPa | 957.2 kg/m3
337.6 kPa | 957.4 kg/m3
337.8 kPa | 957.3 kg/m3
344.9 kPa | 957.4 kg/m3
345.2 kPa | 957.4 kg/m3 and 957.3 kg/m3
345.9 kPa | 957.4 kg/m3
346.4 kPa | 957.5 kg/m3
353.7 kPa | 957.3 kg/m3 and 957.4 kg/m3
